# Measurements reported in patent US12384797B2, “Thioeno[3,2-b] pyridin-7-amine compounds for treating familial dysautonomia” (PTC THERAPEUTICS, INC., priority 2019, dated 2025).
# System: Elongator complex protein 1 (ELP1, also referred to as IKBKAP)
# Test: IKBKAP-HTRF assay (IKBKAP protein in lysates of FD patient-derived fibroblasts)
# Type: cell-based, human
# Settings: 48 hours incubation, 7-point concentration curve
# Procedure, shortened: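 FD patient-derived fibroblasts (10,000/well) were treated 48 h at 37 °C with a 7-point, 3.16-fold compound series in triplicate, then lysed. IKBKAP was read by sandwich HTRF (donor/acceptor anti-IKAP antibodies, overnight at 4 °C, 665/620 nm). MFI is ΔF over vehicle ΔF; EC2x is the concentration giving twice the vehicle IKBKAP level.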
SMILES,EC2x for IKBKAP protein expression (concentration producing two times the amount of IKBKAP protein vs DMSO vehicle control),MFI (maximum fold increase in IKBKAP protein abundance relative to the vehicle control)
"C[C@H](N)Cc1sc2c(NCc3ccco3)cc(Cl)nc2c1Cl [Compound 36, 2-[(2S)-2-aminopropyl]-3,5-dichloro-N-[(furan-2-yl)methyl]thieno[3,2-b]pyridin-7-amine]",***** (≤0.005 μM is indicated by five stars (*****)),***** (>4.9 is indicated by five stars (*****))
"Cc1c(C[C@H](C)N)sc2c(NCc3cccs3)cc(C#N)nc12 [Compound 54, 2-[(2S)-2-aminopropyl]-3-methyl-7-{[(thiophen-2-yl)methyl]amino}thieno[3,2-b]pyridine-5-carbonitrile]",***** (≤0.005 μM is indicated by five stars (*****)),***** (>4.9 is indicated by five stars (*****))
"N[C@@H](CF)Cc1sc2c(NCc3nccs3)cc(Cl)nc2c1Br [Compound 70, 2-[(2R)-2-amino-3-fluoropropyl]-3-bromo-5-chloro-N-[(1,3-thiazol-2-yl)methyl]thieno[3,2-b]pyridin-7-amine]",***** (≤0.005 μM is indicated by five stars (*****)),***** (>4.9 is indicated by five stars (*****))
"C[C@H](N)Cc1cc2nc(Cl)cc(NCc3ccco3)c2s1 [Compound 16, 2-[(2S)-2-aminopropyl]-5-chloro-N-[(furan-2-yl)methyl]thieno[3,2-b]pyridin-7-amine]",***** (≤0.005 μM is indicated by five stars (*****)),**** (between >3.9 and ≤4.9 is indicated by four stars (****))
"Cc1c(C[C@@H](N)CC(C)C)sc2c(NCc3cccs3)cc(Cl)nc12 [Compound 61, 2-[(2S)-2-amino-4-methylpentyl]-5-chloro-3-methyl-N-[(thiophen-2-yl)methyl]thieno[3,2-b]pyridin-7-amine]",***** (≤0.005 μM is indicated by five stars (*****)),***** (>4.9 is indicated by five stars (*****))
"C[C@H](N)Cc1sc2c(NCc3cccs3)cc(Cl)nc2c1Cl [Compound 52, 2-[(2S)-2-aminopropyl]-3,5-dichloro-N-[(thiophen-2-yl)methyl]thieno[3,2-b]pyridin-7-amine]",***** (≤0.005 μM is indicated by five stars (*****)),***** (>4.9 is indicated by five stars (*****))
"Cc1c(C[C@@H](N)C(=O)Nc2ccccn2)sc2c(NCc3ccco3)cc(Cl)nc12 [Compound 134, 3-(5-chloro-7-{[(furan-2-yl)methyl]amino}-3-methylthieno[3,2-b]pyridin-2-yl)-N-pyridin-2-yl-D-alaninamide]",**** (between >0.005 μM and ≤0.02 μM is indicated by four stars (****)),***** (>4.9 is indicated by five stars (*****))
"N[C@@H](CO)Cc1sc2c(NCc3ccco3)cc(Cl)nc2c1Cl [Compound 39, (2R)-2-amino-3-(3,5-dichloro-7-{[(furan-2-yl)methyl]amino}thieno[3,2-b]pyridin-2-yl)propan-1-ol]",***** (≤0.005 μM is indicated by five stars (*****)),***** (>4.9 is indicated by five stars (*****))
"C[C@H](N)C(=O)c1sc2c(NCc3nccs3)cc(Cl)nc2c1Br [Compound 160, (2S)-2-amino-1-(3-bromo-5-chloro-7-{[(1,3-thiazol-2-yl)methyl]amino}thieno[3,2-b]pyridin-2-yl)propan-1-one]",*** (between >0.02 μM and ≤0.5 μM is indicated by three stars (***)),**** (between >3.9 and ≤4.9 is indicated by four stars (****))
"CSC[C@H](N)Cc1sc2c(NCc3ccco3)cc(Cl)nc2c1C [Compound 104, 2-[(2R)-2-amino-3-(methylsulfanyl)propyl]-5-chloro-N-[(furan-2-yl)methyl]-3-methylthieno[3,2-b]pyridin-7-amine]",***** (≤0.005 μM is indicated by five stars (*****)),***** (>4.9 is indicated by five stars (*****))
"N[C@@H](CCF)Cc1sc2c(NCc3cccs3)cc(Cl)nc2c1Br [Compound 74, 2-[(2S)-2-amino-4-fluorobutyl]-3-bromo-5-chloro-N-[(thiophen-2-yl)methyl]thieno[3,2-b]pyridin-7-amine]",***** (≤0.005 μM is indicated by five stars (*****)),***** (>4.9 is indicated by five stars (*****))
"N[C@H](Cc1sc2c(NCc3ccco3)cc(Cl)nc2c1Cl)C(=O)Nc1ccccc1F [Compound 120, 3-(3,5-dichloro-7-{[(furan-2-yl)methyl]amino}thieno[3,2-b]pyridin-2-yl)-N-(2-fluorophenyl)-D-alaninamide]",**** (between >0.005 μM and ≤0.02 μM is indicated by four stars (****)),**** (between >3.9 and ≤4.9 is indicated by four stars (****))
"CNCc1cc2nc(Cl)cc(NCc3ccco3)c2s1 [Compound 25, 5-chloro-N-[(furan-2-yl)methyl]-2-[(methylamino)methyl]thieno[3,2-b]pyridin-7-amine]",*** (between >0.02 μM and ≤0.5 μM is indicated by three stars (***)),*** (between >2.9 and ≤3.9 is indicated by three stars (***))
"N[C@@H](CF)Cc1sc2c(NCc3nccs3)cc(Cl)nc2c1Cl [Compound 90, 2-[(2R)-2-amino-3-fluoropropyl]-3,5-dichloro-N-[(1,3-thiazol-2-yl)methyl]thieno[3,2-b]pyridin-7-amine]",***** (≤0.005 μM is indicated by five stars (*****)),***** (>4.9 is indicated by five stars (*****))
"Oc1csc2c(NCc3cccs3)cc(Cl)nc12 [Compound 138, 5-chloro-7-{[(thiophen-2-yl)methyl]amino}thieno[3,2-b]pyridin-3-ol]",*** (between >0.02 μM and ≤0.5 μM is indicated by three stars (***)),** (between >1.9 and ≤2.9 is indicated by two stars (**))
"Cc1c(C[C@H](C)N)sc2c(NCc3nccs3)cc(Cl)nc12 [Compound 57, 2-[(2S)-2-aminopropyl]-5-chloro-3-methyl-N-[(1,3-thiazol-2-yl)methyl]thieno[3,2-b]pyridin-7-amine]",***** (≤0.005 μM is indicated by five stars (*****)),***** (>4.9 is indicated by five stars (*****))
"COC(=O)[C@H](N)Cc1sc2c(NCc3ccco3)cc(Cl)nc2c1C [Compound 131, methyl 3-(5-chloro-7-{[(furan-2-yl)methyl]amino}-3-methylthieno[3,2-b]pyridin-2-yl)-D-alaninate]",**** (between >0.005 μM and ≤0.02 μM is indicated by four stars (****)),**** (between >3.9 and ≤4.9 is indicated by four stars (****))
"Cc1c(C[C@H](C)N)sc2c(NCc3ccccc3F)cc(Cl)nc12 [Compound 29, 2-[(2S)-2-aminopropyl]-5-chloro-N-[(2-fluorophenyl)methyl]-3-methylthieno[3,2-b]pyridin-7-amine]",***** (≤0.005 μM is indicated by five stars (*****)),***** (>4.9 is indicated by five stars (*****))
"Cc1c(C[C@@H](N)[C@H](C)F)sc2c(NCc3nccs3)cc(Cl)nc12 [Compound 128, 2-[(2R,3S)-2-amino-3-fluorobutyl]-5-chloro-3-methyl-N-[(1,3-thiazol-2-yl)methyl]thieno[3,2-b]pyridin-7-amine]",***** (≤0.005 μM is indicated by five stars (*****)),***** (>4.9 is indicated by five stars (*****))
"C[C@H](N)C(O)c1sc2c(NCc3cccs3)cc(Cl)nc2c1Br (stereo partly drawn) [Compound 155, (2S)-2-amino-1-(3-bromo-5-chloro-7-{[(thiophen-2-yl)methyl]amino}thieno[3,2-b]pyridin-2-yl)propan-1-ol]",* (An EC2x>1 μM is indicated by one star (*)),* (An MFI≤1.9 is indicated by one star (*))
